Data taken from patent US8236279B2, “Bisaminoethanethiol-targeting ligand conjugates and compositions” (priority 1999, dated 2012).
Entries after “also recorded” stand apart in the source; their conditions may differ.

Assays:
[1] = list continues over wrapped lines of the table; cited from earlier work
[2] = test system: patients (3 brain tumors and 2 lung diseases); test: Preliminary clinical imaging studies in patients (brain tumors, lung diseases); format: in vivo, human; conditions: images 1-2 hours post-administration
Procedure: Scintigraphic images, using a gamma camera equipped with low-energy, parallel-hole collimator, were obtained 0.5, 2 and 4 hours after i.v. injection of 100 μCi of the radiotracer. The animal model used was breast tumor-bearing rats. […] Preliminary clinical studies were conducted in 5 patients (3 brain tumors and 2 lung diseases).

[3] = test system: breast (13762) and lung (A549) cancer cells; test: Effect of d- and l-glucose on cellular uptake; format: cell-based; conditions: 1-2.0 mg/well, 2 hours incubation
Procedure: To evaluate if the uptake of ^99mTc-EC-deoxyglucose is mediated via d-glucose mechanism, d- and l-glucose (1 mg and 2.0 mg) were added to, each well containing either breast or lung cancer cells (50,000/0.5 ml/well), along with 2 μCi of ^99mTc-EC-deoxyglucose and ^18F-FDG. After 2 hours incubation, the cells were washed with phosphate buffered saline 3 times and followed by trypsin to lose the cells. The cells were counted by a gamma counter.

[4] = test system: A549 lung cancer cell line; test: In vitro cellular uptake assay; format: cell-based, human; conditions: 2 μCi per well, 80,000 cells, incubation 0.5-4 hours
Procedure: After incubation at 0.5-4 hours, the cells were washed with phosphate buffered saline 3 times and followed by trypsin to lose the cells.
In vitro cellular uptake assay was conducted by using a human lung cancer cell line (A549). Two μCi of ^99mTc-EC-DG and ^18F-FDG were added to wells containing 80,000 cells each. After incubation at 0.5-4 hours, the cells were washed with phosphate buffered saline 3 times and followed by trypsin to lose the cells. The cells were then counted by a gamma counter.

[5] = test system: breast tumor-bearing rats; test: Scintigraphic (gamma camera) imaging studies in tumor-bearing rats; format: in vivo; conditions: different time points (0.5-4 hrs) after i.v. injection
[6] = test system: Breast Tumor-Bearing Rats (13762 tumor cell line); test: Tissue distribution (biodistribution) studies in breast tumor-bearing rats; conditions: for tumor/blood and tumor/muscle count density ratios, course over time: […] (so in the source); for Biodistribution: Brain / Biodistribution: Heart / Biodistribution: Spleen / Tumor/Blood ratio / Tumor/Liver ratio / Tumor/Muscle ratio: Table 9
Procedure: Studies performed 14 to 17 days after implantation when tumors reached approximately 1 cm diameter. Animals were anesthetized with ketamine (10-15 mg/rat, intraperitoneally) before each procedure.
The injected mass of each ligand was 10 μg per rat. At 20 min, 1, 2 and 4 h following administration of the radiopharmaceuticals, the anesthetized animals were sacrificed and the tumor and selected tissues were excised, weighed and counted for radioactivity by a gamma counter (Packard Instruments, Downers Grove, Ill.). The biodistribution of tracer in each sample was calculated as percentage of the injected dose per gram of tissue wet weight (% ID/g). Counts from a diluted sample of the original injectate were used for reference. Tumor/nontarget tissue count density ratios were calculated from the corresponding % ID/g values. Student-t test was used to assess the significance of differences between two groups.
Studies performed 14 to 17 days after implantation when tumors reached approximately 1 cm diameter. Rats were anesthetized with ketamine (10-15 mg/rat, intraperitoneally) before each procedure.
In tissue distribution studies, each animal was injected intravenously with 370-550 KBq of ^99mTc-EC-MN or ^99mTc-EC (n=3/time point). The injected mass of ^99mTc-EC-MN was 10 μg per rat. At 0.5, 2 and 4 hrs following administration of the radiotracers, the rats were sacrificed and the selected tissues were excised, weighed and counted for radioactivity. The biodistribution of tracer in each sample was calculated as percentage of the injected dose per gram of tissue wet weight (% ID/g). Tumor/nontarget tissue count density radios were calculated from the corresponding % ID/g values. […] Student t-test was used to assess the significance of differences between groups.
(§1) At 0.5, 2 and 4 hrs following administration of the radiotracers, the rats were sacrificed and the selected tissues were excised, weighed and counted for radioactivity. The biodistribution of tracer in each sample was calculated as percentage of the injected dose per gram of tissue wet weight (% ID/g). Tumor/nontarget tissue count density ratios were calculated from the corresponding % ID/g values. Student t-test was used to assess the significance of differences between groups.
as §1, with “hours” for “hrs”, “values.” for “values. Student t-test was used to assess the significance of differences between groups.”
Studies were performed 14 to 17 days after implantation when tumors reached approximately 1 cm diameter. Rats were anesthetized with ketamine (10-15 mg/rat, intraperitoneally) before each procedure.
In tissue distribution studies, each animal was injected intravenously with 10-20 μCi (per rat) or 1-2 μCi (per mouse) of ^99mTc-EC or ^99mTc-EC-DG (n=3/time point). The injected mass of ^99mTc-EC-DG was 1 mg per rat. At 0.5, 2 and 4 hours following administration of the radiotracers, the rodents were sacrificed and the selected tissues were excised, weighed and counted for radioactivity. The biodistribution of tracer in each sample was calculated as percentage of the injected dose per gram of tissue wet weight (% ID/g). Tumor/nontarget tissue count density ratios were calculated from the corresponding % ID/g values.

[7] = Water solubility; format: physicochemical
[8] = test system: two lung cancer cell lines and one breast cell line (A549, H1299, 13762); test: Effect of glucose on cellular uptake; format: cell-based
Procedure: Neomycin is known to influence glucose absorption (Rogers et al., 1968; Fanciulli et al., 1994). […] After incubation, the cells were washed with phosphate buffered saline 3 times and followed by trypsin to lose the cells. The cells were then counted by a gamma counter.

[9] = Effect of loading on blood glucose level in normal rats; format: in vivo, Fischer 344 rats; conditions: insulin (5 units) after 30 minutes
Procedure: The blood glucose level (mg/dl) was determined by a glucose meter (Glucometer DEX, Bayer Corporation, Elkhart, Ind.). Prior to the study, the baseline of blood glucose level was obtained. […] In a separate experiment, a group of rats was administered EC-deoxyglucose and FDG. Insulin (5 units) was administered after 30 minutes.

[10] = test system: hexokinase; test: Hexokinase assay (glucose phosphorylation); format: biochemical; conditions: UV wavelength 340 nm
Procedure: To determine if EC-DG mimics glucose phosphorylation, a hexokinase assay was conducted. Using a ready made kit (Sigma Chemical Company), EC-DG, glucosamine and glucose (standard) were assayed at UV wavelength 340 nm.

For Aldesleukin, the “Acute Toxicity” value [1] is listed as “Fever; fluid retention; hypertension;” and the Delayed toxicity [1] is listed as “Neuropsychiatric disorders;”.

With `O=C(N[C@H]1C(O)O[C@H](CO)[C@@H](O)[C@@H]1O)[C@@H]1C[S][Tc]23(=[O])[S]C[C@@H](C(=O)N[C@H]4C(O)O[C@H](CO)[C@@H](O)[C@@H]4O)[N]2CC[N]13` (some centres unmarked) [^99mTc-EC-DG] the “differentiation of benign versus malignant tumors” value [2] was “able to differentiate benign versus malignant tumors”, the “uptake in benign meningioma” value [2] was “no focal intensed uptake; also recorded: poor uptake” and the “uptake in lung tumor” value [2] was “focal intensed uptake; also recorded: high uptake”. For the same molecule, the “uptake in malignant astrocytoma” value [2] was “high uptake”, the “uptake in patient with TB” value [2] was “no focal intensed uptake; also recorded: Poor uptake” and the “effect of d-glucose on cellular uptake” value [3] was “decreased uptake”. For the same molecule, the “effect of l-glucose on cellular uptake” value [3] was “no influence”, the cellular uptake [4] was “comparable to FDG” and the “Scintigraphic images: visualization of tumor / tumor uptake” value [5] was “visualized well”. For the same molecule, the “Scintigraphic images: visualization of tumor / tumor uptake” value ([5]; listed as 99mTc-EC-deoxyglucose) was “well visualized” and the “tumor-to tissue ratios, course over time, compared to 99mTc-EC and free technetium” value ([6]; 0.5-4 hours) was “increased as a function of time”.

For `CCC1(c2ccc(N)cc2)CCC(=O)NC1=O` (centres unmarked) [Aminogiutethimide], the “Acute Toxicity” value [1] is given as “Drowsiness; nausea; dizziness; rash” and the Delayed toxicity [1] is given as “Hypothryroidism (rare); bone”.

For L,L-ethylenedicysteine [EC], the water solubility [7] was “water soluble”.

For `O=C(O)[C@@H]1C[S][99Tc]23(=[O])[S]C[C@@H](C(=O)O)[N]2CC[N]13` [^99mTc-EC, ^99mTc-L,L-ethylenedicysteine], the “Scintigraphic images: visualization of tumor / tumor uptake” value [5] was “no apparent tumor uptake; also recorded: less tumor uptake”, the “tumor/blood count density ratios, course over time” value ([6]; 20 min-4 h) was “decreased” and the “tumor/blood and tumor/muscle count density ratios, course over time” value [6] was “did not alter”. The “tumor-to-blood and tumor-to-muscle values, course over time” value ([6]; same time period (0.5-4 hours)) was “time-dependent decrease” and the “cellular uptake of control” value [8] was “no uptake”.

In the case of `[O]=[99Tc](=[O])(=[O])[O-]` [^99mTc Pertechnetate], the “Biodistribution: Brain” value ([6]; 2 Hour) is reported as 0.022 ± 0.002 % ID/g, the “Biodistribution: Heart” value ([6]; 2 Hour) is reported as 0.145 ± 0.015 % ID/g and the “Biodistribution: Spleen” value ([6]; 2 Hour) is reported as 0.187 ± 0.014 % ID/g. It also gave a Tumor/Blood ratio ([6]; 2 Hour) of 0.497 ± 0.073, a Tumor/Liver ratio ([6]; 2 Hour) of 1.084 ± 0.115 and a Tumor/Muscle ratio ([6]; 2 Hour) of 4.302 ± 0.093. The “Biodistribution: Brain” value ([6]; 4 Hour) was 0.031 ± 0.009 % ID/g, the “Biodistribution: Heart” value ([6]; 4 Hour) was 0.166 ± 0.012 % ID/g and the “Biodistribution: Spleen” value ([6]; 4 Hour) was 0.225 ± 0.017 % ID/g. It also gave a Tumor/Blood ratio ([6]; 4 Hour) of 0.597 ± 0.144, a Tumor/Liver ratio ([6]; 4 Hour) of 0.865 ± 0.270 and a Tumor/Muscle ratio ([6]; 4 Hour) of 6.689 ± 1.458. The “Biodistribution: Brain” value ([6]; 30 Min.) was 0.038 ± 0.014 % ID/g, the “Biodistribution: Heart” value ([6]; 30 Min.) was 0.275 ± 0.089 % ID/g and the “Biodistribution: Spleen” value ([6]; 30 Min.) was 0.331 ± 0.108 % ID/g. It also gave a Tumor/Blood ratio ([6]; 30 Min.) of 0.472 ± 0.093, a Tumor/Liver ratio ([6]; 30 Min.) of 1.084 ± 0.023 and a Tumor/Muscle ratio ([6]; 30 Min.) of 4.788 ± 0.833.

For `O=[N+]([O-])c1nccn1CC(O)C[18F]` (centres unmarked) [[^18F]FMISO], the “tumor-to-blood uptake ratio, comparison among [18F]FMISO, [131I]IMISO and 99mTc-EC-MN” value ([6]; 30 min, 2 and 4 hrs post-injection) was “highest” and the “tumor/blood and tumor/muscle count density ratios, course over time” value [6] was “gradually increased”.

For `COc1cc(NS(C)(=O)=O)ccc1Nc1c2ccccc2nc2ccccc12` [Amsacrine], the Delayed toxicity [1] is given as “Bone marrow depression;”.

With `O=[N+]([O-])c1nccn1CC(O)C[131I]` (centres unmarked) [[^131I]IMISO] the “Tumor/blood and tumor/muscle ratios, 99mTc-EC-MN versus [131I]IMISO” value ([6]; 2 and 4 hrs postinjection, (p<0.05) as printed) was “not significantly different” and the “tumor/blood and tumor/muscle count density ratios, course over time” value [6] was “gradually increased”.

In the case of `OC[C@H]1OC(O)[C@H](F)[C@@H](O)[C@@H]1O` (some centres unmarked) [FDG], the “increased blood glucose level on co-administration with insulin” value [9] is reported as “suppressed”.

For `N[C@H]1C(O)O[C@H](CO)[C@@H](O)[C@@H]1O` (some centres unmarked) [glucosamine], the hexokinase assay [10] was “positive”.

For `OC[C@H]1OC(O)[C@H](O)[C@@H](O)[C@@H]1O` (some centres unmarked) [Glucose], the hexokinase assay [10] was “positive”.

With `OC[C@H]1OC(O)[C@H]([18F])[C@@H](O)[C@@H]1O` (some centres unmarked) [^18F-FDG] the “effect of d-glucose on cellular uptake” value [3] was “decreased uptake” and the “effect of l-glucose on cellular uptake” value [3] was “no influence”.

B1: Asparaginase: anticancer drug listed in Table 2 (protein, UniProt P00805 23-348, looked up)
L-asparaginase 2: LPNITILATGGTIAGGGDSATKSNYTVGKVGVENLVNAVPQLKDIANVKGEQVVNIGSQDMNDNVWLTLAKKINTDCDKTDGFVITHGTDTMEETAYFLDLTVKCDKPVVMVGAMRPSTSMSADGPFNLYNAVVTAADKASANRGVLVVMNDTVLDGRDVTKTNTTDVATFKSVNYGPLGYIHNGKIDYQRTPARKHTSDTPFDVSKLNELPKVGIVYNYANASDLPAKALVDAGYDGIVSAGVGNGNLYKSVFDTLATAAKTGTAVVRSSRVPTGATTQDAEVDDAKYGFVASGTLNPQKARVLLQLALTQTKDPQQIQQIFNQY
For B1, the “Acute Toxicity” value [1] is given as “Nausea and vomiting; fever; chills;”.
